Laboratory results published in ChEMBL document CHEMBL1156596, “Overcoming undesirable CYP1A2 inhibition of pyridylnaphthalene-type aldosterone synthase inhibitors: influence of heteroaryl derivatization on potency and selectivity” (J Med Chem, 2008).

Experiments:
Homo sapiens = species: Homo sapiens; test: Selectivity ratio of IC50 for human CYP11B1 to IC50 for human CYP11B2
CYP1A2 = molecular target: T1, CYP1A2 (Homo sapiens, UniProt P05177); test: Inhibition of human recombinant CYP1A2 expressed in insect microsomes at 2 uM; format: ADME, Microsome
T1 sequence (P05177 whole entry): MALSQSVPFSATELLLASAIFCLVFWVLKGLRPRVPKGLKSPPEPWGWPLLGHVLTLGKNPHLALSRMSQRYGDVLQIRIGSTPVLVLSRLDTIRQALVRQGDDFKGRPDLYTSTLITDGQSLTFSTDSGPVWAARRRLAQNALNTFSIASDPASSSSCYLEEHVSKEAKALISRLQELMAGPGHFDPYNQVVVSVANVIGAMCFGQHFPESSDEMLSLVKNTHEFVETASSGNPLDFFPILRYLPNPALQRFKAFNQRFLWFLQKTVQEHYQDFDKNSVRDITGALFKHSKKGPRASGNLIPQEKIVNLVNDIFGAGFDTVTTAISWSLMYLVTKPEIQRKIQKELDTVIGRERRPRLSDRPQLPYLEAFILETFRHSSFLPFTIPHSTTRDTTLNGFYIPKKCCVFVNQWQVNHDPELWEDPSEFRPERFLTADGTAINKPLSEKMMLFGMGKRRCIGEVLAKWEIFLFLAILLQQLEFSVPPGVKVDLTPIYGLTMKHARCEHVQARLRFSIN

CYP19 (aromatase) = molecular target: T2, CYP19 (aromatase) (Homo sapiens, UniProt P11511); test: Inhibition of human placental CYP19 at 500 nM
T2 sequence (P11511 whole entry): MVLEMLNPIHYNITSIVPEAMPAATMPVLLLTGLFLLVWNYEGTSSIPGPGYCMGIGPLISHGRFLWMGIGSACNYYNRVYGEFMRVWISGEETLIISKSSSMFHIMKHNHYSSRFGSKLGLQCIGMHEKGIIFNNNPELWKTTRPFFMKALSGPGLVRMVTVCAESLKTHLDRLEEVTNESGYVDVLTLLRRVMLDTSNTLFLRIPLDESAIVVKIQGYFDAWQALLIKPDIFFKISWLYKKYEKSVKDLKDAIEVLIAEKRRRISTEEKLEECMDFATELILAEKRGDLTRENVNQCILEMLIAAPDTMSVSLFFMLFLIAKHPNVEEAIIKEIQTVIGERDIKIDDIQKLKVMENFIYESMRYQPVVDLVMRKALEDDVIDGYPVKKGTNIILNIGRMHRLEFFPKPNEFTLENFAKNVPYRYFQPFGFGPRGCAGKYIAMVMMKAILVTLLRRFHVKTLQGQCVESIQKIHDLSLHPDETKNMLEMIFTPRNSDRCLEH

Cytochrome P450 2B6 = molecular target: T3, Cytochrome P450 2B6 (Homo sapiens, UniProt P20813); test: Inhibition of human recombinant CYP2B6 expressed in insect microsomes; format: ADME, Microsome
T3 sequence (P20813 whole entry): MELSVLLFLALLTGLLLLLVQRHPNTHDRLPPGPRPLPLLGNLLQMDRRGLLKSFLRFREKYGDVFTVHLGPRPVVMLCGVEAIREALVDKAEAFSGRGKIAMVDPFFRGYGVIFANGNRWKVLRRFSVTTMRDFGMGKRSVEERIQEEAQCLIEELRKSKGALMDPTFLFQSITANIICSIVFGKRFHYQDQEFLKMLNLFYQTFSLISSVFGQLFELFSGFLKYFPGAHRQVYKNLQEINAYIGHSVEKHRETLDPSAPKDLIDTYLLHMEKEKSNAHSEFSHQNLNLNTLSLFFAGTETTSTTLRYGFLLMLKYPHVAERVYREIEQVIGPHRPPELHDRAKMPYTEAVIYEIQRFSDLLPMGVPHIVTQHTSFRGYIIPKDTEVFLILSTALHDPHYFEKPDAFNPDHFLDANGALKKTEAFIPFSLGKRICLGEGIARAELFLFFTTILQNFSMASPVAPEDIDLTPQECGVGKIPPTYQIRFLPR

Cytochrome P450 2C9 = Cytochrome P450 2C9 (Homo sapiens, UniProt P11712); test: Inhibition of human recombinant CYP2C9 expressed in insect microsomes; format: ADME, Microsome
Chain of Cytochrome P450 2C9 (P11712 whole entry): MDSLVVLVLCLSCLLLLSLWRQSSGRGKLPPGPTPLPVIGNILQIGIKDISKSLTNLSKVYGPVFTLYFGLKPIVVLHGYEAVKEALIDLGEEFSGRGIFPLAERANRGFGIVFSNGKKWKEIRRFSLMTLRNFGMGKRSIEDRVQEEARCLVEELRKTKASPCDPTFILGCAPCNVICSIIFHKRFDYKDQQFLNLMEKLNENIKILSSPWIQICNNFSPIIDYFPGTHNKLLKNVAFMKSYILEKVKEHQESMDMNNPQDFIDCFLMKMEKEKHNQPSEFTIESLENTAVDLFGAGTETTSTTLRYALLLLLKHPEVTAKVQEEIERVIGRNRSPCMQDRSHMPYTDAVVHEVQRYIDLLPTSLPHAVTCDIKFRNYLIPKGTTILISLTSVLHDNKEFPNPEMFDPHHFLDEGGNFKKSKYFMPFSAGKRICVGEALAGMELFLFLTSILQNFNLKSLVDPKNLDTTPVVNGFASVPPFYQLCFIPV

Cytochrome P450 2C19 = Cytochrome P450 2C19 (Homo sapiens, UniProt P33261); test: Inhibition of human recombinant CYP2C19 expressed in insect microsomes; format: ADME, Microsome
Chain of Cytochrome P450 2C19 (P33261 whole entry): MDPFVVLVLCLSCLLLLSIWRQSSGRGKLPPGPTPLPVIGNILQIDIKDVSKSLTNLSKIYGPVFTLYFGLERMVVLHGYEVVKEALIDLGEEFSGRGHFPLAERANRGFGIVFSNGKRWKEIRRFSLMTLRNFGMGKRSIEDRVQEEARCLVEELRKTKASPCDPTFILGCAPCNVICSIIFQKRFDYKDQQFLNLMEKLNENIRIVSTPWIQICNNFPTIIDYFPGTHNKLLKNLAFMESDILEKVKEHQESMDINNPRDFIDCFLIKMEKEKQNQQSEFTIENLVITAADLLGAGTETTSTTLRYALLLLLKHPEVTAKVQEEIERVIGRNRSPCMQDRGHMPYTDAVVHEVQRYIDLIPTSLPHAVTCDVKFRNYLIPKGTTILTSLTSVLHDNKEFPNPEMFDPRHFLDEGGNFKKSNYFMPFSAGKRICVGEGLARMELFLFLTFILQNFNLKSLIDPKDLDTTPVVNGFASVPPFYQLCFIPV

Cytochrome P450 2D6 = Cytochrome P450 2D6 (Homo sapiens, UniProt P10635); test: Inhibition of human recombinant CYP2D6 expressed in insect microsomes; format: ADME, Microsome
Chain of Cytochrome P450 2D6 (P10635 whole entry): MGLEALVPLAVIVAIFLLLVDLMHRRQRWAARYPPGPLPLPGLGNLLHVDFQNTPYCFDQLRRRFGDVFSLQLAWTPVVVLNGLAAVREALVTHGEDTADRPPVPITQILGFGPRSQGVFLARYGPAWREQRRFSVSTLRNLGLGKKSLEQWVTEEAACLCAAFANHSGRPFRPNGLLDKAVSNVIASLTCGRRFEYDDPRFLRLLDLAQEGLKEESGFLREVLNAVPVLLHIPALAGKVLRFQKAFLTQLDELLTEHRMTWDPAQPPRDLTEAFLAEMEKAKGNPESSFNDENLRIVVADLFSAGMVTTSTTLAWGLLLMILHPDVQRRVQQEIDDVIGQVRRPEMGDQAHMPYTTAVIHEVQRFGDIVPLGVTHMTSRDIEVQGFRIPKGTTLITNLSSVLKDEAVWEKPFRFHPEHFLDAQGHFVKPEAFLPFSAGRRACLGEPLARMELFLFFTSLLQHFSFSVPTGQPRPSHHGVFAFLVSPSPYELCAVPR

Cytochrome P450 3A4 = Cytochrome P450 3A4 (Homo sapiens, UniProt P08684); test: Inhibition of human recombinant CYP3A4 expressed in insect microsomes; format: ADME, Microsome
Chain of Cytochrome P450 3A4 (P08684 whole entry): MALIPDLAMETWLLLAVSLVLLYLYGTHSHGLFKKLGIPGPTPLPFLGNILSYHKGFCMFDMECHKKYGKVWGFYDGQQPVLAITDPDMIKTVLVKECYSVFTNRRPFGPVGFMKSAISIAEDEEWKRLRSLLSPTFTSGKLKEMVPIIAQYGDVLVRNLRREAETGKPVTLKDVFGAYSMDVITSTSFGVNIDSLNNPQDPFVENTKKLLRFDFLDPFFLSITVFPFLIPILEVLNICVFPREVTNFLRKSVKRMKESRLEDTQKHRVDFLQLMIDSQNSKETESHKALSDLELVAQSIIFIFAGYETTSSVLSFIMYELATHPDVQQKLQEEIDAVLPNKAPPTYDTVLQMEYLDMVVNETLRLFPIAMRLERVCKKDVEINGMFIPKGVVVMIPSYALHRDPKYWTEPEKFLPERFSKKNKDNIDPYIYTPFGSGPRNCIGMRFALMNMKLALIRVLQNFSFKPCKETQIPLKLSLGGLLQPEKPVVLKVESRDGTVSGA

[1] = Terminal half life in Wistar rat at 5 mg/kg, po; format: ADME, organism-based; parameters: dose 5 mg/kg, route oral; details: in vivo
[2] = Cmax in Wistar rat at 5 mg/kg, po; format: ADME, organism-based; parameters: dose 5 mg/kg, route oral; details: in vivo
[3] = Plasma concentration in Wistar rat plasma at 5 mg/kg, po after 1 hr; format: ADME, organism-based; parameters: dose 5 mg/kg, route oral
[4] = Plasma concentration in Wistar rat plasma at 5 mg/kg, po after 2 hrs; format: ADME, organism-based; parameters: dose 5 mg/kg, route oral
[5] = Plasma concentration in Wistar rat plasma at 5 mg/kg, po after 4 hrs; format: ADME, organism-based; parameters: dose 5 mg/kg, route oral
[6] = Plasma concentration in Wistar rat plasma at 5 mg/kg, po after 6 hrs; format: ADME, organism-based; parameters: dose 5 mg/kg, route oral
[7] = Plasma concentration in Wistar rat plasma at 5 mg/kg, po after 8 hrs; format: ADME, organism-based; parameters: dose 5 mg/kg, route oral
[8] = Plasma concentration in Wistar rat plasma at 5 mg/kg, po after 24 hrs; format: ADME, organism-based; parameters: dose 5 mg/kg, route oral
[9] = Tmax in Wistar rat at 5 mg/kg, po; format: ADME, organism-based; parameters: dose 5 mg/kg, route oral; details: in vivo
[10] = molecular target: T4, Cytochrome P450 11B2, mitochondrial (Homo sapiens, UniProt P19099)
T4 sequence (P19099 whole entry): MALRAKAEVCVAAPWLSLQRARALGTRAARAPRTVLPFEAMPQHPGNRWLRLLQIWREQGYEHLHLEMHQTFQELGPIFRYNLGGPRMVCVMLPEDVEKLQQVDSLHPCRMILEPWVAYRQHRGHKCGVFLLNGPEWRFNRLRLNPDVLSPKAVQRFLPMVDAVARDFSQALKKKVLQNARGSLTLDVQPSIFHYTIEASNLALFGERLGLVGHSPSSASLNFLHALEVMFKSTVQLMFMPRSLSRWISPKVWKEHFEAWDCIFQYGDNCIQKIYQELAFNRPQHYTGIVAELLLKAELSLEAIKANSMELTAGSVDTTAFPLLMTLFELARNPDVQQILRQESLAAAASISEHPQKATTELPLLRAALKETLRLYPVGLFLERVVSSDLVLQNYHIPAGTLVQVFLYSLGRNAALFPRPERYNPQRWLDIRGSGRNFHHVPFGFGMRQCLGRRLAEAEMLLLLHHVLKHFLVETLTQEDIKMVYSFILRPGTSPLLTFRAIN

Cytochrome P450 1A2 = molecular target: T5, Cytochrome P450 1A2 (Homo sapiens, UniProt P05177)
T5 sequence (P05177 whole entry): T1 sequence (P05177 whole entry)

in vivo = details: Wistar, rat, plasma, po, 5 mg/kg

- Ratio IC50 (Homo sapiens): 112
- inhibition at 2 µM (CYP1A2): 57%
- inhibition at 0.5 µM (CYP19 (aromatase)): 7%
- IC50 (Cytochrome P450 2B6): 16.5 µM
- IC50 (Cytochrome P450 2C9): 1.27 µM
- IC50 (Cytochrome P450 2C19): 3.54 µM
- IC50 (Cytochrome P450 2D6): 33.1 µM
- IC50 (Cytochrome P450 3A4): 3.54 µM
- half-life [1]: 3.2 h
- Cmax [2]: 81 ng/mL
- concentration at 1 h [3]: 34.9 ng/mL
- concentration at 2 h [4]: 55.8 ng/mL
- concentration at 4 h [5]: 76.3 ng/mL
- concentration at 6 h [6]: 81.4 ng/mL
- concentration at 8 h [7]: 34.6 ng/mL
- concentration at 24 h [8]: 1.28 ng/mL
- Tmax [9]: 6 h
- IC50 [10]: 0.0006 µM
- IC50 (Cytochrome P450 1A2): 1.62 µM
- AUC(0-inf) (in vivo): 762 ng·h/mL
Structure (SMILES): COc1ccc2cc(-c3cncc4ccccc34)ccc2c1
